Data published in article PMC12153055 (Organometallics, 2025).

Assays:
[1] = tested on: 5′-biotinylated dsDNA oligomer (DNA, duplex) TGTAATCGTAGGTTGGTCCCATCACCCACC/GGTGGGTGATGGGACCAACCTACGATTACA; assay: SPR biosensor kinetics, immobilised DNA; details: PBS buffer; monoexponential fit, single site
[2] = tested on: HEK293T human embryonic kidney cells; assay: MTT cytotoxicity assay, HEK293T cells; format: cell-based; details: 72 h exposure, mean ± SD of three experiments
Protocol: (§1) The stability of [1]-Cl-[4]-Cl was evaluated in aqueous phosphate-buffered solution (PBS, pH 7.4) using UV–visible spectroscopy. […] The cytotoxicity of the compounds was measured according to a standard MTT assay against human breast cancer (MCF7 and MCF7CR) and ovarian cancer (A2780 and A2780cis) cell lines, and also nontumorigenic MCF10A and human embryonic kidney HEK293T cells (Table ).
(§2) All cell lines were grown in a humidified 5% CO2 environment at 37 °C in dedicated media. Growth media comprised minimum essential medium (MEM) supplemented with 10% FBS, 1% sodium pyruvate, antibiotics, and antimycotic agents for MCF7. MCF10A cells were cultured in a DMEM/F12 Ham’s mixture supplemented with 5% equine serum, 20 ng/mL EGF, 10 μg/mL insulin, […], antibiotics, and antimycotics. MCF7-CR cells were grown in minimum essential medium (MEM), 10% FBS supplemented with 0.1 mg/mL cisplatin, sodium pyruvate, antibiotics, and antimycotics. A2780 and A2780cis cells were cultured in RPMI 1640 GlutaMAX, and HEK293T cells were cultured in DMEM GlutaMAX medium containing 10% heat-inactivated FBS and antibiotics. The effect exerted on cell viability by the compounds was determined using the 3-(4,5-dimethylthiazol-2-yl)-2,5-diphenyltetrazolium bromide (MTT) assay. After individual treatments with 0–100 μM of the compound for 72 h, MTT was added to the culture media at a final concentration of 0.5 mg/mL and incubated for 2 h at 37 °C. Cisplatin was used as a positive control. The medium was replaced with 100 μL of DMSO, and after 10 min, the optical density was recorded at 550 nm on a microplate reader. At least six cultures were used for each data point. Chemicals (Merck-Sigma, Milan, Italy) and plasticware (Corning, Milan, Italy) were cell culture grade.

[3] = tested on: MCF7 human breast adenocarcinoma cells; assay: MTT cytotoxicity assay, MCF7 cells; format: cell-based; details: for IC50: MTT, 72 h exposure, mean ± SD of three experiments; for SI MCF7 MCF10A: selectivity index, values equal IC50 MCF10A / IC50 MCF7
Protocol: as §1, §2

[4] = tested on: A2780 human ovarian carcinoma cells; assay: MTT cytotoxicity assay, A2780 cells; format: cell-based; details: for IC50: MTT, 72 h exposure, mean ± SD of three experiments; for SI A2780 HEK293T: selectivity index, values equal IC50 HEK293T / IC50 A2780
Protocol: as §1, §2

[5] = tested on: A2780cis cisplatin-resistant ovarian cancer cells; assay: MTT cytotoxicity assay, A2780cis cells; format: cell-based, human; details: 72 h exposure, mean ± SD of three experiments
Protocol: as §1, §2

[6] = tested on: MCF7-CR cisplatin-resistant breast cancer cells; assay: MTT cytotoxicity assay, MCF7CR cells; format: cell-based, human; details: 72 h exposure, mean ± SD of three experiments
Protocol: as §1, §2

dsDNA oligomer = assay: SPR biosensor binding to surface-anchored dsDNA oligomer; details: surface-blocked DNA oligomer; for Kd: equilibrium dissociation constant
Protocol: The DNA binding ability of curcuminoid ligands and their complexes was evaluated by using a Surface plasmon resonance (SPR) biosensor. The monoexponential nature of binding kinetics for all the compounds is consistent with the presence of a single high-affinity site on DNA (Figure ).
The binding kinetics/affinities of the molecules of interest for DNA were studied according to a previously described biosensor-based method. Briefly, streptavidin was anchored to a carboxylate surface via EDC/NHS chemistry, and 5′-biotinylated dsDNA oligomer (sequence: 3′-[…]-5′) was coupled to surface-blocked streptavidin. Compounds were independently added to the DNA-coated surface at different concentrations, each time following binding kinetics up to equilibrium. PBS buffer was used for both the dissociation and the regeneration steps. Experimental data were fitted to both mono- and biexponential models, and the validity of each model was assessed by a standard F-test procedure. The binding sites on DNA were mapped according to independent competitive binding assays individually using a minor groove binder (GelRed) and a major groove binder (methyl green), respectively. Briefly, GelRed displacement was monitored by comparing the emission spectra of solutions containing different concentrations of curcuminoid-like ligands/complexes (0–100 μM), 20 μM DNA, and GelRed (10 μM) in 10 mM phosphate buffer, pH 7.4. Similarly, methyl green displacement assay was performed by monitoring the absorbance at 630 nm upon addition of candidate competitors (0–100 μM), 100 μM DNA, and methyl green (10 μM) in 50 mM Tris–HCl buffer and 7.5 mM MgSO4, pH 7.5.

[7] = target: 20S proteasome trypsin-like activity (Homo sapiens, UniProt Q99436); assay: Isolated 20S proteasome, trypsin-like activity (Z-Leu-Ser-Thr-Arg-AMC); format: biochemical; details: for IC50: 0–100 μM, 1 h, 37 °C, pH 8.0
Protocol: (§3) Proteasome inhibition by the compounds was evaluated with respect to three major activities of the 20S proteasome, namely, chymotrypsin-like, trypsin-like, and caspase-like activities.
(§4) The effect of the compounds on the activity of the isolated 20S proteasome was tested using specific synthetic fluorogenic peptide substrates (Suc-Leu-Leu-Val-Tyr-AMC, Z-Leu-Ser-Thr-Arg-AMC, and Z-Leu-Leu-Glu-AMC for chymotrypsin-like, trypsin-like, and peptidyl glutamyl peptide hydrolase activity, respectively) as reported elsewhere. Briefly, individual mixtures consisting of the compounds (0–100 μM), 1 μg of isolated 20S proteasome, the specific substrate, and 50 mM Tris–HCl pH 8.0 up to a final volume of 100 μL were incubated at 37 °C, and after 1 h, the fluorescence measurements of the hydrolyzed AMC were recorded on a SpectraMax Gemini XPS microplate reader (λexc = 365 nm, λem = 449 nm).

[8] = target: 20S proteasome PGPH (caspase-like) activity (Homo sapiens, UniProt P28072); assay: Isolated 20S proteasome, peptidyl glutamyl peptide hydrolase (caspase-like) activity (Z-Leu-Leu-Glu-AMC); format: biochemical; details: 0–100 μM, 1 h, 37 °C, pH 8.0
Protocol: as §3, §4

[9] = target: 20S proteasome chymotrypsin-like activity (Homo sapiens, UniProt P28074); assay: Isolated 20S proteasome, chymotrypsin-like activity (Suc-Leu-Leu-Val-Tyr-AMC); format: biochemical; details: 0–100 μM, 1 h, 37 °C, pH 8.0
Protocol: as §3, §4

[10] = tested on: MCF10A nontumorigenic cells; assay: MTT cytotoxicity assay, MCF10A cells; format: cell-based, human; details: 72 h exposure, mean ± SD of three experiments
Protocol: as §1, §2

p62 = assay: Western blot quantification of p62 in MCF7 cells; format: cell-based, human; details: 10 μM, 24 h
Protocol: Since no significant correlation emerged among cytotoxicity, DNA binding affinity, and proteasome inhibition, the effects of the treatment on the expression levels of p62 were evaluated. p62 is a multifunctional binding protein that is involved in signaling pathways of many cellular activities, including autophagy, whose abnormal expression is associated with malignancies, breast cancer in particular. […] This effect was more evident for the free ligand, in agreement with its higher cytotoxicity to breast cancer cells compared with that of the corresponding ruthenium complex (Figure ).
4 Representative autoradiographs (upper panel) and densitometric analyses (lower panel) of p62 levels in MCF7 cells treated with 10 μM of HZPbdcurc and [3]-Cl for 24 h (*p < 0.01 compared with the control; #p < 0.01 compared with [3]-Cl).
Semiquantitative analysis of p62 was performed by Western blotting upon individual 24 h treatments of MCF-7 cells with 10 μM of HZPbdcurc or [Ru(p-cym)(HZPbdcurc)-Cl]-Cl. Treated cells were lysed, and 15 μg of total protein was electrophoresed on 12% SDS-PAGE, then protein bands were electroblotted onto PVDF membranes (Millipore–Milan, Italy). After incubation with anti-p62 monoclonal antibody (Merck Sigma–Milan, Italy), the bands were immunodetected on a ChemiDoc MP imaging system (Bio-Rad - Milan, Italy). […] Western blot results were analyzed using Fiji software.

[11] = Solubility in water (qualitative); format: physicochemical

SMILES	KD [1] [µM]	IC50 [2] [µM]	IC50 [3] [µM]	IC50 [4] [µM]	IC50 [5] [µM]	IC50 [6] [µM]	kass (dsDNA oligomer) [M^–1s^–1]	kdiss (dsDNA oligomer) [s^–1]	Kd (dsDNA oligomer) [µM]	IC50 [7] [µM]	IC50 [8] [µM]	IC50 [9] [µM]	SI A2780 HEK293T [4]	solubility in water [11]	other results
COc1cc(/C=C/c2cc(/C=C/c3ccc(O)c(OC)c3)n(-c3ccccn3)n2)ccc1O	4.5 ± 2.7														
N.N.[Cl][Pt][Cl] [Cisplatin, reference compound]		2.8 ± 0.5	4.2 ± 2.3	0.25 ± 0.02	7 ± 1	49.1 ± 7									
Oc1ccc(/C=C/c2cc(/C=C/c3ccc(O)cc3)n(-c3ccccn3)n2)cc1 [HZPbdcurc, 4,4′-((1E,1′E)-(1-(pyridin-2-yl)-1H-pyrazole-3,5-diyl)bis(ethene-2,1-diyl))diphenol]							1808 ± 740	0.031 ± 0.004	17 ± 7.3	> 100	> 100	> 100	2.13		IC50 ([2]; Homo sapiens, HEK-293T): 17 ± 0.9 µM; IC50 ([3]; Homo sapiens, MCF7): 35.1 ± 3 µM; SI MCF7 MCF10A [3]: 0.28; IC50 ([10]; Homo sapiens, MCF-10A): 9.7 ± 6.5 µM; IC50 ([4]; Homo sapiens, A2780): 8 ± 1.2 µM; IC50 ([5]; Homo sapiens, A2780cis): 11.1 ± 2.9 µM; p62 levels (p62): an increase in the levels of p62 was observed; IC50 ([6]; Homo sapiens): 25.9 ± 11 µM
COc1cc(/C=C/c2cc(/C=C/c3ccc(O)c(OC)c3)n(-c3ccccn3)n2)ccc1O.Cc1ccc(C(C)C)cc1.[Cl-].[Cl][Ru+] [[1]Cl, [Ru(p-cym)(HZPcurc)Cl]Cl]		25 ± 1	49.2 ± 5	4.6 ± 0.3	6.6 ± 0.9	41 ± 10	32082 ± 773	0.009 ± 0.004	0.29 ± 0.14	63 ± 7	> 100	> 100	5.43	soluble in polar solvents, including H2O	inhibition of the trypsin-like activity (in words) [7]: inhibition of the trypsin-like activity; SI MCF7 MCF10A [3]: 0.64; IC50 [10]: 31.7 ± 10 µM
COc1cc(/C=C/c2cc(/C=C/c3ccc(O)c(OC)c3)n(-c3ccccn3)n2)ccc1O.Cc1ccc(C(C)C)cc1.[Cl-].[Cl][Os+] [[2]Cl, [Os(p-cym)(HZPcurc)Cl]Cl]		25 ± 8	> 100	6.3 ± 0.5	12.1 ± 0.6	> 100	1156 ± 179	0.005 ± 0.002	4.2 ± 1.8	51 ± 13	> 100	84 ± 60	3.97	completely soluble	inhibition of the trypsin-like activity (in words) [7]: inhibition of the trypsin-like activity; IC50 [10]: 25.6 ± 15 µM
Cc1ccc(C(C)C)cc1.Oc1ccc(/C=C/c2cc(/C=C/c3ccc(O)cc3)n(-c3ccccn3)n2)cc1.[Cl-].[Os+2]	39.2 ± 17.0														
COc1cc(/C=C/c2cc(/C=C/c3ccc(O)c(OC)c3)n(-c3ccccn3)n2)ccc1O [HZPcurc, 4,4′-((1E,1′E)-(1-(pyridin-2-yl)-1H-pyrazole-3,5-diyl)bis(ethene-2,1-diyl))bis(2-methoxyphenol)]							2994 ± 1142	0.013 ± 0.009	4.5 ± 2.7	> 100	> 100	> 100	3.10	insoluble in H2O	IC50 ([2]; Homo sapiens, HEK-293T): 16.4 ± 0.6 µM; IC50 ([3]; Homo sapiens, MCF7): 23 ± 6 µM; SI MCF7 MCF10A [3]: 0.30; IC50 ([10]; Homo sapiens, MCF-10A): 7 ± 4.5 µM; IC50 ([4]; Homo sapiens, A2780): 5.3 ± 0.4 µM; IC50 ([5]; Homo sapiens, A2780cis): 6.7 ± 0.6 µM; IC50 ([6]; Homo sapiens): 17.7 ± 3.6 µM
Oc1ccc(/C=C/c2cc(/C=C/c3ccc(O)cc3)n(-c3ccccn3)n2)cc1	17.0 ± 7.3														
COc1cc(/C=C/c2cc(/C=C/c3ccc(O)c(OC)c3)n(-c3ccccn3)n2)ccc1O.Cc1ccc(C(C)C)cc1.[Cl-].[Ru+2]	0.29 ± 0.14														
Cc1ccc(C(C)C)cc1.Oc1ccc(/C=C/c2cc(/C=C/c3ccc(O)cc3)n(-c3ccccn3)n2)cc1.[Cl-].[Ru+2]	2.2 ± 1.5														
Cc1ccc(C(C)C)cc1.Oc1ccc(/C=C/c2cc(/C=C/c3ccc(O)cc3)n(-c3ccccn3)n2)cc1.[Cl-].[Cl][Os+] [[4]Cl, [Os(p-cym)(HZPbdcurc)Cl]Cl]		32 ± 2	> 100	2.4 ± 0.4	5.4 ± 0.3	> 100	266 ± 102	0.010 ± 0.002	39.2 ± 17	61 ± 44	> 100	98 ± 50	13.33	partly soluble in H2O	inhibition of the trypsin-like activity (in words) [7]: inhibition of the trypsin-like activity; IC50 [10]: 25.8 ± 10 µM
COc1cc(/C=C/c2cc(/C=C/c3ccc(O)c(OC)c3)n(-c3ccccn3)n2)ccc1O.Cc1ccc(C(C)C)cc1.[Cl-].[Os+2]	4.2 ± 1.8														
